Patent US20260317324A1, “BIFUNCTIONAL COMPOUNDS FOR DEGRADING BRAF VIA UBIQUITIN PROTEOSOME PATHWAY” (Nurix Therapeutics, Inc., priority 2023, published 2026)

What was measured:
Assay type in all cases: cell-based
[1] = molecular target: T1, BRAF V600E (Homo sapiens, UniProt P15056, V600E); assay: BRAF HiBiT degradation assay, C-terminal HiBiT-tagged BRAF V600E A375 cells (clone 1F10), Nano-Glo HiBiT Lytic assay; settings: for Dmax: A-375
T1 construct: endogenous C-terminal HiBiT fusion tag on BRAF V600E allele; endogenous in cells; host or cells: A375 clone 1F10 (CRISPR-Cas9 knock-in of the HiBiT tag; parental A375 from ATCC)
Procedure, shortened: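 Endogenous BRAF V600E-HiBiT A375 (1F10), 10,000 cells/well, 24 h preculture; cpd 11-pt, 1 μM–0.01 nM half-log, n=2, 0.2% DMSO; HiBiT lytic detection 10 min RT; DC50 = fitted conc at Y=50; Obs. Dmax vs DMSO.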

[2] = molecular target: T2, BRAF G466V (Homo sapiens, UniProt P15056, G466V); assay: BRAF HiBiT degradation assay, C-terminal HiBiT-tagged BRAF G466V overexpressed in HCT-116 BRAF−/− cells (clone 8), Nano-Glo HiBiT Lytic assay
T2 construct: Horizon Discovery (HCT-116 BRAF−/− cells); host or cells: HCT-116 BRAF−/− cells, clone 8, lentiviral transduction
Procedure, shortened: (§1)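 Luminescence from the lytic HiBiT reagent, read after 10 min at room temperature, measured tagged BRAF remaining in lentivirally transduced HCT-116 BRAF−/− cells. Compounds were tested from 1 μM to 0.01 nM in half-log steps at 0.2% DMSO. DC50 values were fitted at 50% remaining.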

[3] = molecular target: T3, BRAF G469A (Homo sapiens, UniProt P15056, G469A); assay: BRAF HiBiT degradation assay, C-terminal HiBiT-tagged BRAF G469A overexpressed in HCT-116 BRAF−/− cells (clone 34), Nano-Glo HiBiT Lytic assay
T3 construct: Horizon Discovery (HCT-116 BRAF−/− cells); host or cells: HCT-116 BRAF−/− cells, clone 34, lentiviral transduction
Procedure, shortened: as §1

[4] = molecular target: T4, BRAF D594G (Homo sapiens, UniProt P15056, D594G); assay: BRAF HiBiT degradation assay, C-terminal HiBiT-tagged BRAF D594G overexpressed in HCT-116 BRAF−/− cells (clone 63), Nano-Glo HiBiT Lytic assay
T4 construct: Horizon Discovery (HCT-116 BRAF−/− cells); host or cells: HCT-116 BRAF−/− cells, clone 63, lentiviral transduction
Procedure, shortened: as §1

[5] = A375 (BRAF V600E, Class 1), DC50 at 50% degradation
[6] = A375 (BRAF V600E, Class 1), observed Dmax, % protein degraded relative to DMSO control
[7] = BRAF G466V (Class 3), HCT-116 BRAF−/− cells, DC50 at 50% degradation
[8] = BRAF G466V (Class 3), HCT-116 BRAF−/− cells, observed Dmax relative to DMSO control
[9] = BRAF G469A (Class 2), HCT-116 BRAF−/− cells, DC50 at 50% degradation
[10] = BRAF G469A (Class 2), HCT-116 BRAF−/− cells, observed Dmax relative to DMSO control
[11] = BRAF D594G (Class 3), HCT-116 BRAF−/− cells, DC50 at 50% degradation
[12] = BRAF D594G (Class 3), HCT-116 BRAF−/− cells, observed Dmax relative to DMSO control
[13] = A375 (BRAF V600E), DC50 at 50%: fitted conc. at Y=50
[14] = A375 (BRAF V600E), percentage protein degraded at maximal compound effect relative to DMSO
[15] = BRAF G466V, DC50 at 50%: fitted conc. at Y=50
[16] = HCT-116, BRAF G466V, percentage protein degraded at maximal compound effect relative to DMSO
[17] = Class 2, BRAF G469A, DC50 at 50%: fitted conc. at Y=50
[18] = HCT-116, Class 2, BRAF G469A, percentage protein degraded at maximal compound effect relative to DMSO
[19] = BRAF D594G, DC50 at 50%: fitted conc. at Y=50
[20] = HCT-116, BRAF D594G, percentage protein degraded at maximal compound effect relative to DMSO

T3 sequence (P15056 whole entry G469A): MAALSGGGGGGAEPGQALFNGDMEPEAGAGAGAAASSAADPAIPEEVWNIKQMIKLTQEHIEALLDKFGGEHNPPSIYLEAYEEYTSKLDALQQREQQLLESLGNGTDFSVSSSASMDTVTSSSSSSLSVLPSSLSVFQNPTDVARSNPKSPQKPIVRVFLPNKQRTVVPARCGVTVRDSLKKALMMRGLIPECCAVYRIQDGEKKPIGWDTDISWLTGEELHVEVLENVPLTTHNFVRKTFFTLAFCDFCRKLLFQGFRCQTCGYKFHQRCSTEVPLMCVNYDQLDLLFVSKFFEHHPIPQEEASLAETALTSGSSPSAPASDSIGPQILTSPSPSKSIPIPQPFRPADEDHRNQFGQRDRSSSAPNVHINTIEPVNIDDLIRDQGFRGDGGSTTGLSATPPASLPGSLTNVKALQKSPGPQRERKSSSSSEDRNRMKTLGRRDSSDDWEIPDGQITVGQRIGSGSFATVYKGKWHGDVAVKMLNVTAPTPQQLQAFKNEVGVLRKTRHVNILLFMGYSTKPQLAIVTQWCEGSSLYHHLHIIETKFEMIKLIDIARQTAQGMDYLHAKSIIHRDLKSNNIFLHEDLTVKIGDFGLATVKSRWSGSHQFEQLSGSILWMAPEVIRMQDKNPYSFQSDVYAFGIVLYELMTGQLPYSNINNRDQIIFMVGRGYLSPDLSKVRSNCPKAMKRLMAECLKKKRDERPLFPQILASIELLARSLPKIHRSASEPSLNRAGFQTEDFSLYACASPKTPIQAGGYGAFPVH
T2 sequence (P15056 whole entry G466V): as the sequence (P15056 whole entry G469A) above, with G466V, A469G counted along it
T4 sequence (P15056 whole entry D594G): as the sequence (P15056 whole entry G469A) above, with A469G, D594G counted along it
T1 sequence (P15056 whole entry V600E, the tested form may be a part): as the sequence (P15056 whole entry G469A) above, with A469G, V600E counted along it

| SMILES | DC50 [1, 5] [nM] | Dmax [1, 6] [%] | DC50 [2, 7] [nM] | Dmax [2, 8] [%] | DC50 [3, 9] [nM] | Dmax [3, 10] [%] | DC50 [4, 11] [nM] | Dmax [4, 12] [%] | DC50 [1, 13] [nM] | Dmax [1, 14] [%] | DC50 [2, 15] [nM] | Dmax [2, 16] [%] | DC50 [3, 17] [nM] | Dmax [3, 18] [%] | DC50 [4, 19] [nM] | Dmax [4, 20] [%] |
| --- | --- | --- | --- | --- | --- | --- | --- | --- | --- | --- | --- | --- | --- | --- | --- | --- |
| CCN(C)S(=O)(=O)Nc1cc(Cl)cc(-c2cn(-c3ccc(N4CCN(CC5CCN(c6ccc(N7CCC(=O)NC7=O)cc6)CC5)CC4)cc3)nc2-c2ccncc2)c1F [Compound 307, 1-(4-{4-[(4-{4-[4-(5-chloro-3-{[ethyl(methyl)sulfamoyl]amino}-2-fluorophenyl)-3-(pyridin-4-yl)-1H-pyrazol-1-yl]phenyl}piperazin-1-yl)methyl]piperidin-1-yl}phenyl)-1,3-diazinane-2,4-dione] | < 10 | > 70 | < 10 | > 70 | 50 to 500 | 30 to 70 | 10 to 50 | 30 to 70 | – | – | – | – | – | – | – | – |
| O=C1CC[C@H](c2ccc(N3CCC(CN4CCN(c5ccc(-n6cc(-c7cc(Cl)cc(NS(=O)(=O)C8CCCC8)c7F)c(-c7ccncc7)n6)cc5)CC4)CC3)cc2)C(=O)N1 [Compound 374, N-{5-chloro-3-[1-(4-{4-[(1-{4-[(3R)-2,6-dioxopiperidin-3-yl]phenyl}piperidin-4-yl)methyl]piperazin-1-yl}phenyl)-3-(pyridin-4-yl)-1H-pyrazol-4-yl]-2-fluorophenyl}cyclopentanesulfonamide] | < 10 | > 70 | 10 to 50 | > 70 | 10 to 50 | 30 to 70 | 10 to 50 | 30 to 70 | – | – | – | – | – | – | – | – |
| CCCS(=O)(=O)Nc1cccc(-c2cn(C3CCN(C(=O)C4CCN(C(=O)C5CCN(c6ccc(C7CCC(=O)NC7=O)cn6)CC5)CC4)CC3)nc2-c2ccncc2)c1F (racemic) [Compound 7, Rac-N-[3-(1-{1-[1-(1-{5-[(3R)-2,6-dioxopiperidin-3-yl]pyridin-2-yl}piperidine-4-carbonyl)piperidine-4-carbonyl]piperidin-4-yl}-3-(pyridin-4-yl)-1H-pyrazol-4-yl)-2-fluorophenyl]propane-1-sulfonamide] | – | – | – | – | – | – | – | – | 10 to 50 | > 70 | 50 to 500 | 30 to 70 | > 500 | 30 to 70 | > 500 | 30 to 70 |

The next lines start with the values.

| DC50 [1, 5] [nM] | Dmax [1, 6] [%] | DC50 [2, 7] [nM] | Dmax [2, 8] [%] | DC50 [3, 9] [nM] | Dmax [3, 10] [%] | DC50 [4, 11] [nM] | Dmax [4, 12] [%] | DC50 [1, 13] [nM] | Dmax [1, 14] [%] | DC50 [2, 15] [nM] | Dmax [2, 16] [%] | DC50 [3, 17] [nM] | Dmax [3, 18] [%] | DC50 [4, 19] [nM] | Dmax [4, 20] [%] | SMILES |
| --- | --- | --- | --- | --- | --- | --- | --- | --- | --- | --- | --- | --- | --- | --- | --- | --- |
| – | – | – | – | – | – | – | – | < 10 | > 70 | > 500 | 30 to 70 | > 500 | 30 to 70 | > 500 | 30 to 70 | CCCS(=O)(=O)Nc1cccc(-c2nc(C(C)(C)C)sc2-c2ccnc(Nc3ccc(N4CCN(C(=O)[C@@H]5CCN(c6ccc([C@H]7CCC(=O)NC7=O)cn6)C5)CC4)c(F)c3)n2)c1F (racemic) [Compound 49, Rac-N-(3-(2-(tert-butyl)-5-(2-((4-(4-((R)-1-(5-((R)-2,6-dioxopiperidin-3-yl)pyridin-2-yl)pyrrolidine-3-carbonyl)piperazin-1-yl)-3-fluorophenyl)amino)pyrimidin-4-yl)thiazol-4-yl)-2-fluorophenyl)propane-1-sulfonamide] |
| – | – | – | – | – | – | – | – | < 10 | > 70 | < 10 | 30 to 70 | < 10 | 30 to 70 | < 10 | 30 to 70 | CCCS(=O)(=O)Nc1cccc(-c2nc(C3CCN(C(=O)C4CCN(CC5CCN(c6cccc7c6n(C)c(=O)n7C6CCC(=O)NC6=O)CC5)CC4)CC3)sc2-c2ccnc(N)n2)c1F (racemic) [Compound 195, Rac-N-{3-[5-(2-aminopyrimidin-4-yl)-2-(1-{1-[(1-{1-[(3R)-2,6-dioxopiperidin-3-yl]-3-methyl-2-oxo-2,3-dihydro-1H-1,3-benzodiazol-4-yl}piperidin-4-yl)methyl]piperidine-4-carbonyl}piperidin-4-yl)-1,3-thiazol-4-yl]-2-fluorophenyl}propane-1-sulfonamide] |
